Experimental data: PubChem BioAssay AID1259338 (Broad Institute, 2017)
Activity calls are given as the source filed them.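 The calls were made as follows: active = compounds lowering the signal with a fitted AC50 at or below a set concentration limit; inconclusive = flat curve with 30 to 70% inhibition, or a poor fit; inactive = the rest.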

What follows are compounds tested against Caspase recruitment domain-containing protein 9 (Homo sapiens) + E3 ubiquitin-protein ligase TRIM62 (Homo sapiens) (UniProt Q9H257+Q9BVG3) (assay: disruptors of CARD9-TRIM62 binding, dose response, cell lysate, HEK293FT lysates, Luminex bead readout (AID 1259338; as to activity change, negative = inhibition: reference of the scale not given here)). Conditions: Luminex bead PPI, MFI.
Chain of Caspase recruitment domain-containing protein 9 (Homo sapiens) + E3 ubiquitin-protein ligase TRIM62 (Homo sapiens) (Q9BVG3 whole entry, looked up, the tested form may be a part): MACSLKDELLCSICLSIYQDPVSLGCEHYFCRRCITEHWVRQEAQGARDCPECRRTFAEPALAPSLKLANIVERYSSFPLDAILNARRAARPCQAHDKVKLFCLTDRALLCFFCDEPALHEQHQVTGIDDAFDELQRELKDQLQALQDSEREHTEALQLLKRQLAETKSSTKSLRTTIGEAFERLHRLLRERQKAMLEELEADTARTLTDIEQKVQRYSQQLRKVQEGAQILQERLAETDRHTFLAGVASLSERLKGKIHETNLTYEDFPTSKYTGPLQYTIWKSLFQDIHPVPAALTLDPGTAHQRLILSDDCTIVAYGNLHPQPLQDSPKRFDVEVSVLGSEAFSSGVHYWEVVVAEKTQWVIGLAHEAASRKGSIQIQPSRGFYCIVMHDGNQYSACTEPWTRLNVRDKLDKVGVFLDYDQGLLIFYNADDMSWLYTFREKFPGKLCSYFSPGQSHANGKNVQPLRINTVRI
Chain of Caspase recruitment domain-containing protein 9 (Homo sapiens) + E3 ubiquitin-protein ligase TRIM62 (Homo sapiens) (Q9H257 whole entry, looked up, the tested form may be a part): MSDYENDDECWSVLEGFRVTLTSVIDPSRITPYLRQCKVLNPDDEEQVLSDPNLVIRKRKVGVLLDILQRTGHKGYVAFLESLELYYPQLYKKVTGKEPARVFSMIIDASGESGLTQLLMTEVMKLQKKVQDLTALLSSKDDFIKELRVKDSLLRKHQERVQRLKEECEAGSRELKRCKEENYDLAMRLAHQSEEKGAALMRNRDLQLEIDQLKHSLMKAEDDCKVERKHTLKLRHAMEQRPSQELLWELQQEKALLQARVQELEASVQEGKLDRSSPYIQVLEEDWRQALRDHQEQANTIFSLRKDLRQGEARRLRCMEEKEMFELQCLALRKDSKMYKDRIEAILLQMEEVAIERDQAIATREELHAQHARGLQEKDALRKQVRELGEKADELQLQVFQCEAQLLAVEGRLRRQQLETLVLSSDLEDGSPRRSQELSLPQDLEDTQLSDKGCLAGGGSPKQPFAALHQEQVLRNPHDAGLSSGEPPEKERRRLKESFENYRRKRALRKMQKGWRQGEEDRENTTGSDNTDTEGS

| Structure (SMILES) | AC50 |
| --- | --- |
| COc1ccc(S(=O)(=O)Nc2ccc3c(c2)C(=O)N([C@H](C)CO)C[C@H](C)[C@@H](CN(C)CC2CCCCC2)OCCCC[C@H](C)O3)cc1 | > 160 µM (inactive) |
| CC(=O)c1cccc(OCC(=O)N(C)CC(=O)NCc2ccco2)c1 | 82.2 µM |
| C[C@H](CO)N1C[C@H](C)[C@@H](CN(C)CC2CCCCC2)OCCCC[C@H](C)Oc2ccc(NS(C)(=O)=O)cc2C1=O | 28.9 µM |
| NC(=O)C1(N2CCCCC2)CCN(c2ncc(NC(=O)c3ccccc3F)cc2C(=O)O)CC1 | 18 µM |
| NC(=O)C1(N2CCCCC2)CCN(c2ncc(NC(=O)c3cccc(Cl)c3)cc2C(=O)O)CC1 | 6.54 µM |
| O=C(NCC1CCCO1)c1cc(-c2ccco2)nc2ccccc12 (stereo unspecified) | > 160 µM (inactive) |
| CCc1ccc(Nc2nc(C(=O)NCc3ccc(N(C)C)cc3)nc3ccccc23)cc1 | 49 µM |
| NC(=O)c1ccc(CN2C(=O)C3(CCNCC3)Nc3ccccc32)cc1 | > 160 µM (inactive) |
| O=S(=O)(c1ccc2nc(-c3ccco3)c(-c3ccco3)nc2c1)N1CCOCC1 | > 160 µM (inactive) |
| O=C1CC2(CCN(C(=O)Nc3ccccc3)CC2)CN1Cc1ccc(Cl)cc1 | 68.7 µM |
| NC(=O)C1(N2CCCCC2)CCN(c2ccc(NC(=O)c3cccc(Cl)c3)cc2C(=O)O)CC1 | 14.8 µM |

Same assay, conditions: Luminex bead PPI, MFI, at 80 µM (top of the series)

| Structure (SMILES) | activity change, negative = inhibition |
| --- | --- |
| Cc1noc(CN(C)C(=O)c2cc(-c3ccco3)nc3c(C)c(Cl)ccc23)n1 | inactive |
| O=C(Nc1ccon1)c1cc2cccnc2n(Cc2ccccc2)c1=O | inactive |
| O=C1CC(c2ccco2)Cc2nc(N3CCc4ccccc4C3)ncc21 (stereo unspecified) | inactive |
| Cc1[nH]c2ccc(Cl)cc2c(=O)c1CN1CCCC1 | inactive |
| N#Cc1c2c(c(NCc3ccco3)n3c1nc1ccccc13)CCC2 | inactive |
| CCOc1ccc(CNc2nc(-c3nnc(-c4ccc(F)cc4)o3)nc3ccccc23)cc1 | inactive |
| O=C(Nc1ncccc1O)c1ccc(OCC2CCCO2)cc1 (stereo unspecified) | inactive |
| O=C1c2ccccc2S(=O)(=O)N1Cc1cccc(S(=O)(=O)N2CCOCC2)c1 | inactive |
| CC(C(=O)N1CCCC1)N1CCN(c2ccccc2O)CC1 (stereo unspecified) | inactive |
| O=C(Nc1nc(-c2ccco2)c(-c2ccco2)s1)c1ccc(F)cc1F | inactive |
| CC1(C)Cc2ccccc2-c2nc(-c3ccccc3)oc(=O)c21 | inactive |
| CC(=O)Nc1ccc(Nc2nc(-c3nnc(-c4cccc(C)c4)o3)nc3ccccc23)cc1 | inactive |
| Cn1cccc1CNCCCSc1ncccn1 | inactive |
| C[C@H](CO)N1C[C@H](C)[C@@H](CN(C)C(=O)C2CCCCC2)OCCCC[C@H](C)Oc2ccc(NS(=O)(=O)c3ccc(F)cc3)cc2C1=O | inactive |
| Cc1ccc(Nc2nc(C(=O)Nc3ccc(Br)cc3)nc3ccccc23)cc1 | inactive |
| CCOC(=O)/C=C/S(=O)(=O)c1ccc(NC(C)=O)cc1 | inactive |
| O=C(N/N=C/C=C/c1ccco1)c1cncc(Br)c1 | inactive |
| Cc1oc(CSCc2cc(C(=O)O)c(C)o2)cc1C(=O)O | inactive |
| O=C(Nc1nc(-c2nc3ccccc3s2)cs1)c1ccco1 | inactive |
| O=S(=O)(Nc1nc2ccccc2nc1NCc1ccco1)c1ccccc1 | inactive |
| C[C@H](CO)N1C[C@H](C)[C@@H](CN(C)CC2CCCCC2)OCCCC[C@H](C)Oc2ccc(NS(=O)(=O)c3cccs3)cc2C1=O | inactive |
| O=C(O)c1cc(-c2ccco2)nc2ccccc12 | inactive |
| O=C(Nc1cccc2nsnc12)c1ccc(-c2cccc(Cl)c2)o1 | inactive |
| Cc1sc2ncnc(SCc3ccco3)c2c1C | inactive |
| O=C(Nc1ccc2c(c1)nc1n2CCN(C2CCCCC2)C1)c1ccco1 | inactive |
